Calls of active or inactive are those of the source. No cut-off for these calls is given here.
Key:
PANC-1 [1] = experiment: Cytotoxicity against human PANC1 after 24 hrs by fluorometric microculture cytotoxicity assay; type: functional, cell-based; settings: PANC-1, 24 h
[2] = Cytotoxicity against mouse C3H10T1/2 cells after 24 hrs by fluorometric microculture cytotoxicity assay; type: cell-based; settings: C3H 10T1/2, 24 h
DU-145 [3] = experiment: Cytotoxicity against human DU145 cells after 24 hrs by fluorometric microculture cytotoxicity assay; type: functional, cell-based; settings: DU-145, 24 h
[4] = target: T1, Zinc finger protein GLI1 (Homo sapiens) (UniProt P08151); experiment: Inhibition of GLI1-mediated transcriptional activity in human HaCaT cells by luciferase based reporter gene assay; type: cell-based
T1 sequence (whole entry): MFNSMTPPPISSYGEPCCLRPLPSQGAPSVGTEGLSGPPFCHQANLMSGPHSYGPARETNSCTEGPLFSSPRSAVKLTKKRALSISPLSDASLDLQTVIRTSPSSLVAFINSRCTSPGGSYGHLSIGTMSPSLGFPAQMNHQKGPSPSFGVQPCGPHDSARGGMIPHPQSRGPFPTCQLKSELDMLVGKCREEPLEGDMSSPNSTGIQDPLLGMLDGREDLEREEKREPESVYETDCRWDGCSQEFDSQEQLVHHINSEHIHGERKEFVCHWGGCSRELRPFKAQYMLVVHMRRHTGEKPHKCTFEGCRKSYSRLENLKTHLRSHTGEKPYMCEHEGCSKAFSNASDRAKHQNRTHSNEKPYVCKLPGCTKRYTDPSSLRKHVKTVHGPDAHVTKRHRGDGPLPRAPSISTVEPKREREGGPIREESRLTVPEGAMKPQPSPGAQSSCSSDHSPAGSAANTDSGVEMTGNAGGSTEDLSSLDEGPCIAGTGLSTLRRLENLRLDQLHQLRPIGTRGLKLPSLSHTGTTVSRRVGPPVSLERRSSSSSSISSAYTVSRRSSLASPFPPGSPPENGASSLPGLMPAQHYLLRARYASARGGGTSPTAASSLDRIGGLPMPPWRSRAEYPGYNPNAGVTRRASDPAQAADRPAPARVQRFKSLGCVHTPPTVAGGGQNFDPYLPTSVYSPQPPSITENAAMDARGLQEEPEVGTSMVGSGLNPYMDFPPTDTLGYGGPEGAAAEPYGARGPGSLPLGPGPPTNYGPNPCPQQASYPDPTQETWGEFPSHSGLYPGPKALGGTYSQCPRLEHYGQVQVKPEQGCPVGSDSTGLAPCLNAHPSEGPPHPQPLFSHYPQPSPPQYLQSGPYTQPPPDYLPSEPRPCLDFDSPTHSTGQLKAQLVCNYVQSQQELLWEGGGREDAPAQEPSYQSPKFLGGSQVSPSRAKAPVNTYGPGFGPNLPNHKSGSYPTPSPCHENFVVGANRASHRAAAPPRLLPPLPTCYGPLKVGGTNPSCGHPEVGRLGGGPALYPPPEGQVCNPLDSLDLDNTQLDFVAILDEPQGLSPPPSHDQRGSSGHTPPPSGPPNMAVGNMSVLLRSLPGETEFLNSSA

[5] = target: T1, Zinc finger protein GLI1 (Homo sapiens); experiment: Effect on Hh/GLI-mediated transcription in human PANC1 assessed as decrease in […] protein expression by Western blot; type: cell-based; settings: PANC-1
HaCaT = experiment: Decrease in GLI1 protein expression in human HaCaT cells by Western blot; type: functional, cell-based
[6] = target: T1, Zinc finger protein GLI1 (Homo sapiens); experiment: Effect on Hh/GLI-mediated transcription in human HaCaT cells assessed as reduction of PTCH protein expression by Western blot; type: cell-based
[7] = target: T1, Zinc finger protein GLI1 (Homo sapiens); experiment: Effect on Hh/GLI-mediated transcription in human HaCaT cells assessed as reduction of BCL2 protein expression by Western blot; type: cell-based
[8] = target: T1, Zinc finger protein GLI1 (Homo sapiens); experiment: Effect on Hh/GLI-mediated transcription in human PANC1 assessed as decrease in BCL2 protein expression by Western blot; type: cell-based; settings: PANC-1
DU-145 [9] = experiment: Cytotoxicity against human DU145 cells at 100 uM after 24 hrs by fluorometric microculture cytotoxicity assay; type: functional, cell-based
PANC-1 [10] = experiment: Cytotoxicity against human PANC1 at 100 uM after 24 hrs by fluorometric microculture cytotoxicity assay; type: functional, cell-based
[11] = target: T1, Zinc finger protein GLI1 (Homo sapiens); experiment: Inhibition of GLI-mediated […] mRNA production in human PANC1 cells by RT-PCR analysis; type: cell-based; settings: PANC-1

SMILES | IC50 (PANC-1 [1]) [µM] | IC50 [2] [µM] | IC50 (DU-145 [3]) [µM] | Activity [4] | Activity [5] | Activity (HaCaT) | Activity [6] | Activity [7] | Activity [8] | Activity (DU-145 [9]) | Activity (PANC-1 [10]) | Activity [11]
C=C(C)[C@@H]1CC[C@]2(C(=O)O)CC[C@]3(C)[C@H](CC[C@@H]4[C@@]5(C)C[C@@H](O)[C@H](O)C(C)(C)[C@@H]5CC[C@]43C)[C@@H]12 [ALPHITOLIC ACID] | 41 | 145 | 70 | Dose-dependent effect | – | – | – | – | – | – | – | –
C=C(C)[C@@H]1CC[C@]2(C(=O)O)CC[C@]3(C)[C@H](CC[C@@H]4[C@@]5(C)CC[C@H](O)C(C)(C)[C@@H]5CC[C@]43C)[C@@H]12 [BETULINIC ACID] | 44 | 82 | 37 | Dose-dependent effect | Active | Active | Active | Active | Active | – | – | –
C=C(C)[C@@H]1CC[C@]2(C(=O)O)CC[C@]3(C)[C@H](CC[C@@H]4[C@@]5(C)[C@H](CO)[C@@H](O)C(C)(C)[C@@H]5CC[C@]43C)[C@@H]12 [CEANOTHANOLIC ACID] | > 200 | > 200 | > 200 | – | – | – | – | – | – | inactive | inactive | –
C=C(C)[C@@H]1CC[C@]2(C(=O)O)CC[C@]3(C)[C@H](CC[C@@H]4[C@@]5(C)[C@@H](C(=O)O)[C@H](O)C(C)(C)[C@@H]5CC[C@]43C)[C@@H]12 [CEANOTHIC ACID] | 195 | > 200 | > 200 | – | – | – | – | – | – | inactive | inactive | –
C=C(C)[C@@H]1CC[C@]2(C(=O)O)CC[C@]3(C)[C@H](CC[C@@H]4[C@@]5(C)[C@H](C=O)[C@@H](O)C(C)(C)[C@@H]5CC[C@]43C)[C@@H]12 [COLUBRINIC ACID] | 43 | 167 | 78 | Dose-dependent effect | Active | – | Dose-dependent effect | Dose-dependent effect | Active | – | – | Dose-dependent effect
